We go through five compounds from patent publication US4261989A, “Geldanamycin derivatives and antitumor drug” (Kaken Chemical Co. Ltd., priority 1979, dated 1981).

The LD50 is the dose expected to kill half of the subjects tested. One may read the inhibition as the percentage by which the read-out fell short of the control.

A short description of data set [1]: Acute toxicity, LD50 to mouse by intraperitoneal injection (Table 3). The conditions noted are these: in vivo, ip. Here is the method: LD50 of each sample to mouse was measured by intraperitoneal injection of each sample.
A further data set deals with cancer cell W-2K-11. The data set is described as follows: Growth inhibition of cancer cell W-2K-11 (percent inhibition of cell multiplication, Table 2). Type of data set: cell-based, mouse. Particulars: Mus musculus, 48 hours after addition of sample, W-2K-11 cells; for inhibition at 1 µg/mL: concentration 1 μg/ml; for inhibition at 1 µg/mL / inhibition at 10 µg/mL: read-out: Percent inhibition (%); for inhibition at 10 µg/mL: concentration 10 μg/ml. As to the method:
Cancer cell W-2K-11 was obtained by transforming fibroblast C3H-2K clone derived from kidney of mouse by cancerogenic virus. The cancer cell W-2K-11 was cultured by the following method.
(1) Preparation of culture medium
9.4 Gram of Eagle's MEM culture media (manufactured by Nissui Seiyaku K. K.) was dissolved in 900 ml. of distilled water and the solution was sterilized under high pressure at 120° C. for 15 minutes and cooled. 100 Ml. of calf serum and 3-5 ml. of 10% aqueous solution of sodium bicarbonate were added to the solution to adjust pH to 7.1-7.2. 10 Ml. of an aqueous solution of L-glutamine (2.92 g./100 ml.) filtered by a millipore filter was added just before the use of the solution as culture medium.
(2) Preparation of transplanted cell solution
The cancer cell W-2K-11 stored in a freezer at -80° C. was melted at room temperature and treated by a centrifugal separator at 670 g. for 5 minutes. The precipitated cell was dispersed in 50 ml. of the culture medium (1). The suspension was charged into Roux flask and cultured at 37° C. The multiplication of the cells was initiated and accomplished after 3 to 4 days. The cultured mixture was decanted and 10 ml. of 0.2% trypsin solution was added and the mixture was kept at room temperature for 2 to 3 minutes and the trypsin mixture was decanted and then, 50 ml. of the culture medium (1) was added to prepare a suspension of cells.
(3) Incubation of cells and addition of sample
1.8 Ml. of the suspension of cells (2) was charged into each Petri dish and incubated in a carbon dioxide gas incubator (5% of CO2; 95% of air) at 37° C. Twenty four hours after the initiation of the incubation, 0.2 ml. of each ethanol solution of each sample was added, and the incubation was continued. Forty eight hours after the addition of the sample, numbers of survival cells were counted under a microscopic observation and each percent inhibition of cell multiplication was calculated. [formula]

SMILES strings stand for the structures. A value given as a limit tells only on which side of the number the result lay.

`CCNC1=C2CC(C)CC(OC)C(O)C(C)/C=C(\C)C(OC(N)=O)C(OC)/C=C\C=C(/C)C(=O)NC(=CC1=O)C2=O` (stereo not drawn) [Example 3] yielded an LD50 in data set [1] of 120 mg/kg. In addition, the inhibition at 1 µg/mL with cancer cell W-2K-11 came to 90%.
`COC1=C2CC(C)CC(OC)C(O)C(C)C=C(C)C(OC(N)=O)C(OC)C=CC=C(C)C(=O)NC(=C(N(C)C)C1=O)C2=O` (stereo not drawn) [Example 36, 19-dimethylamino-Geldanamycin] registered an LD50 in data set [1] of over 240 mg/kg. In the data set with cancer cell W-2K-11, the inhibition at 1 µg/mL was found to be 70% and the inhibition at 10 µg/mL came out at 84%.
In data set [1], `COC1=C2CC(C)CC(OC)C(O)C(C)C=C(C)C(OC(N)=O)C(OC)C=CC=C(C)C(=O)N(C)C(=CC1=O)C2=O` (stereo not drawn) [Example 41, 21-N-methyl-Geldanamycin] had a 50% lethal dose (LD50) of 120 mg/kg. The inhibition at 10 µg/mL with cancer cell W-2K-11 is 82%.
Compound `COC1=C2CC(C)CC(OC)C(O)C(C)C3OC3(C)C(OC(N)=O)C(OC)C=CC=C(C)C(=O)NC(=CC1=O)C2=O` (stereo not drawn) [Example 45, 8,9-epoxy-Geldanamycin] displayed a median lethal dose (LD50) in data set [1] of 240 mg/kg. Besides, in the data set with cancer cell W-2K-11, the inhibition at 1 µg/mL worked out at 95% and the inhibition at 10 µg/mL is 100%.
`COC1=C2C[C@@H](C)C[C@H](OC)[C@H](O)[C@@H](C)/C=C(\C)[C@H](OC(N)=O)[C@@H](OC)/C=C\C=C(/C)C(=O)NC(=CC1=O)C2=O` [Geldanamycin] returned an LD50 in data set [1] of 15 mg/kg. In the data set on cancer cell W-2K-11 (concentration 1.2 μg/ml), this compound registered an inhibition at 1.2 µg/mL of 61%.
